From patent publication US8754079B2, “Cycloalkyl containing thienopyrimidines for pharmaceutical compositions” (Boehringer Ingelheim International GmbH, priority 2010, dated 2014) come the findings set out here.

This test deals with T1, MNK2 (Homo sapiens, UniProt Q9HBH9).
T1 construct: the open reading frames of human Mnk1 and Mnk2a were amplified from cDNA; made in house; host or cells: E. coli BL21
Briefly: Mnk2a in vitro kinase assay (indirect fluorescence polarization). The class given is biochemical. Particulars: pre-activated GST-Mnk2a 2.5 nM, 20 μM ATP, 30 μM substrate peptide. In short, it runs like this: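 Human GST-Mnk2a was expressed in E. coli and activated in vitro with 150 nM pre-activated ERK2 and 50 μM ATP in HEPES pH 7.4/MgCl2 buffer (45 min, 30 °C). Activity on an eIF4E Ser209-derived 12mer peptide was read by competitive fluorescence polarization with a phospho-specific antibody.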

T1 sequence (Q9HBH9 whole entry): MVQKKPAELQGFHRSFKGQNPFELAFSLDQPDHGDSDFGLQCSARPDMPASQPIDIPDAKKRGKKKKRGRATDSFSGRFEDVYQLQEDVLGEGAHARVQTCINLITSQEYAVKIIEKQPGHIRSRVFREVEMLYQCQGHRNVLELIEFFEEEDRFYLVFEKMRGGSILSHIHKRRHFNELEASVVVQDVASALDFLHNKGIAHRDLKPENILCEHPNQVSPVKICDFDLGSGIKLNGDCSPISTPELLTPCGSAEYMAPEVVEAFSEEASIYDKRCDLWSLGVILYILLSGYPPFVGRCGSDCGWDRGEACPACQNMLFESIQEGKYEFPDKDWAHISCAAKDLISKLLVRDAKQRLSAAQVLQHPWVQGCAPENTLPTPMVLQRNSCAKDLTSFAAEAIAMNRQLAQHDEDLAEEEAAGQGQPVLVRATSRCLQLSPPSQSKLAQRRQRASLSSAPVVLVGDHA

The IC50 is the point on the concentration scale where inhibition reaches its midpoint. Compound `CC(=O)N(C)[C@H]1CC[C@H](Oc2cc(F)ccc2Nc2ncnc3sc(C(=O)NCCCN(C)C)c(C)c23)CC1` [Example 8, N-(3-(dimethylamino)propyl)-4-(4-fluoro-2-(trans-4-(N-methylacetamido)cyclohexyloxy)phenylamino)-5-methylthieno[2,3-d]pyrimidine-6-carboxamide] registered an IC50 of 0.012 µM.
In the case of `Cc1c(C(N)=O)sc2ncnc(Nc3ccc(F)cc3O[C@H]3CC[C@@H](N(C)S(C)(=O)=O)CC3)c12` [Example 9, 4-(4-Fluoro-2-(cis-4-(N-methylmethylsulfonamido)cyclohexyloxy)phenylamino)-5-methylthieno[2,3-d]pyrimidine-6-carboxamide] it was 5.9 µM.
In the case of `CC(=O)N(C)[C@H]1CC[C@@H](Oc2cc(F)ccc2Nc2ncnc3sc(C(N)=O)c(C)c23)CC1` [Example 10] it was 2.5 µM; in that of `COC(=O)N(C)[C@H]1CC[C@H](Oc2cc(F)ccc2Nc2ncnc3sc(C(N)=O)c(C)c23)CC1` [Example 11, Methyl trans-4-(2-(6-carbamoyl-5-methylthieno[2,3-d]pyrimidin-4-ylamino)-5-fluorophenoxy)cyclohexyl(methyl)carbamate], 0.007 µM.
In the case of `CN[C@H]1CC[C@H](Oc2cc(F)ccc2Nc2ncnc3sc(C(N)=O)c(C)c23)CC1` [Example 12, 4-(4-Fluoro-2-(trans-4-(methylamino)cyclohexyloxy)phenylamino)-5-methylthieno[2,3-d]pyrimidine-6-carboxamide] it was 0.007 µM; in that of `Cc1c(C(N)=O)sc2ncnc(Nc3ccc(F)cc3O[C@H]3CC[C@H](NC4CCN(C)CC4)CC3)c12` [Example 16, 4-(4-Fluoro-2-(trans-4-(1-methylpiperidin-4-ylamino)cyclohexyloxy)phenylamino)-5-methylthieno[2,3-d]pyrimidine-6-carboxamide], 0.013 µM.
Compound `Cc1c(C(N)=O)sc2ncnc(Nc3ccc(F)cc3OC3CCC4(CC3)OCCO4)c12` [Example 19, 4-(2-(1,4-Dioxaspiro[4.5]decan-8-yloxy)-4-fluorophenylamino)-5-methylthieno[2,3-d]pyrimidine-6-carboxamide] came in with an IC50 of 0.031 µM.
In the case of `COC(=O)c1sc2ncnc(Nc3ccc(F)cc3OC3CCC(=O)CC3)c2c1C` [Example 20, Methyl 4-(4-fluoro-2-(4-oxocyclohexyloxy)phenylamino)-5-methylthieno[2,3-d]pyrimidine-6-carboxylate] it was 0.36 µM.
With `Cc1c(C(N)=O)sc2ncnc(Nc3ccc(F)cc3OC3CCC(=O)CC3)c12` [Example 21, 4-(4-Fluoro-2-(4-oxocyclohexyloxy)phenylamino)-5-methylthieno[2,3-d]pyrimidine-6-carboxamide] the figure was 0.031 µM; with `COCCN(C)[C@H]1CC[C@H](Oc2cc(F)ccc2Nc2ncnc3sc(C(N)=O)c(C)c23)CC1` [Example 22, 4-(4-Fluoro-2-(trans-4-((2-methoxyethyl)(methyl)amino)cyclohexyloxy)phenylamino)-5-methylthieno[2,3-d]pyrimidine-6-carboxamide], 0.065 µM; with `COCCN(C)[C@H]1CC[C@@H](Oc2cc(F)ccc2Nc2ncnc3sc(C(N)=O)c(C)c23)CC1` [Example 23, 4-(4-Fluoro-2-(cis-4-((2-methoxyethyl)(methyl)amino)cyclohexyloxy)phenylamino)-5-methylthieno[2,3-d]pyrimidine-6-carboxamide], 0.92 µM.
With `COCCN[C@H]1CC[C@H](Oc2cc(F)ccc2Nc2ncnc3sc(C(N)=O)c(C)c23)CC1` [Example 24, 4-(4-Fluoro-2-(trans-4-(2-methoxyethylamino)cyclohexyloxy)phenylamino)-5-methylthieno[2,3-d]pyrimidine-6-amide] the figure was 0.014 µM.
In turn, `COCCN[C@H]1CC[C@@H](Oc2cc(F)ccc2Nc2ncnc3sc(C(N)=O)c(C)c23)CC1` [Example 25, 4-(4-Fluoro-2-(cis-4-(2-methoxyethylamino)cyclohexyloxy)phenylamino)-5-methylthieno[2,3-d]pyrimidine-6-carboxamide] showed an IC50 of 0.3 µM.
`Cc1c(C(N)=O)sc2ncnc(Nc3ccc(F)cc3O[C@H]3CC[C@H](N4CCOCC4)CC3)c12` [Example 26, 4-(4-Fluoro-2-(trans-4-morpholinocyclohexyloxy)phenylamino)-5-methylthieno[2,3-d]pyrimidine-6-carboxamide] gave an IC50 of 0.082 µM.
In the case of `Cc1c(C(N)=O)sc2ncnc(Nc3ccc(F)cc3O[C@H]3CC[C@@H](N4CCOCC4)CC3)c12` [Example 27, 4-(4-Fluoro-2-(cis-4-morpholinocyclohexyloxy)phenylamino)-5-methylthieno[2,3-d]pyrimidine-6-carboxamide] it was 9.7 µM; in that of `COC(=O)c1sc2ncnc(Nc3ccc(F)cc3O[C@@H]3C[C@H](O)C[C@H](O)C3)c2c1C` [Example 28.1], 0.158 µM.
In the case of `CO[C@@H]1C[C@H](OC)C[C@H](Oc2cc(F)ccc2Nc2ncnc3sc(C(N)=O)c(C)c23)C1` [Example 29] it was 0.09 µM.
With `COC(=O)c1sc2ncnc(Nc3ccc(F)cc3OC3CCC(C)(C)CC3)c2c1C` [Example 31.1] the figure was 0.037 µM.
Compound `Cc1c(C(=O)NCCCN(C)C)sc2ncnc(Nc3ccc(F)cc3OC3CCC(C)(C)CC3)c12` [Example 32, 4-[2-(4,4-Dimethyl-cyclohexyloxy)-4-fluoro-phenylamino]-5-methyl-thieno[2,3-d]pyrimidine-6-carboxylic acid (3-dimethylamino-propyl)-amide] yielded a half-maximal inhibitory concentration (IC50) of 0.036 µM.
On to `Cc1c(C(N)=O)sc2ncnc(Nc3ccc(F)cc3OC3CCC(F)(F)CC3)c12` [Example 33, 4-[2-(4,4-Difluoro-cyclohexyloxy)-4-fluoro-phenylamino]-5-methyl-thieno[2,3-d]pyrimidine-6-carboxylic acid amide], for which the concentration for half-maximal inhibition (IC50) was 0.007 µM.
In the case of `Cc1c(C(=O)NCCCN(C)C)sc2ncnc(Nc3ccc(F)cc3OC3CCC(F)(F)CC3)c12` [Example 34, 4-[2-(4,4-Difluoro-cyclohexyloxy)-4-fluoro-phenylamino]-5-methyl-thieno[2,3-d]pyrimidine-6-carboxylic acid (3-dimethylamino-propyl)-amide], the midpoint of inhibition, the IC50, lay at 0.028 µM.
Regarding `CC(=O)N[C@H]1C[C@H](Oc2cc(F)ccc2Nc2ncnc3sc(C(=O)O)c(C)c23)C1` [Example 35.2, 4-[2-(trans-3-Acetylamino-cyclobutoxy)-4-fluoro-phenylamino]-5-methyl-thieno[2,3-d]pyrimidine-6-carboxylic acid], the half-inhibitory concentration (IC50) was 0.023 µM.
In the case of `CC(=O)N[C@H]1C[C@H](Oc2cc(F)ccc2Nc2ncnc3sc(C(N)=O)c(C)c23)C1` [Example 35.3, 4-[2-(trans-3-Acetylamino-cyclobutoxy)-4-fluoro-phenylamino]-5-methyl-thieno[2,3-d]pyrimidine-6-carboxylic acid amide] it was 0.023 µM; in that of `CC(=O)N[C@H]1C[C@H](Oc2cc(F)ccc2Nc2ncnc3sc(C(=O)NCCCN(C)C)c(C)c23)C1` [Example 36], 0.066 µM.
In the case of `CCNC(=O)c1sc2ncnc(Nc3ccc(F)cc3O[C@H]3C[C@H](NC(C)=O)C3)c2c1C` [Example 37] it was 0.069 µM; in that of `CONC(=O)c1sc2ncnc(Nc3ccc(F)cc3O[C@H]3C[C@H](NC(C)=O)C3)c2c1C` [Example 38], 0.07 µM.
`CC(=O)N[C@H]1C[C@H](Oc2cc(F)ccc2Nc2ncnc3sc(C(=O)NCCCN4CCCC4)c(C)c23)C1` [Example 39] yielded an IC50 of 0.061 µM.
`CC(=O)N[C@H]1C[C@H](Oc2cc(F)ccc2Nc2ncnc3sc(C(=O)NC4CCN(C)CC4)c(C)c23)C1` [Example 40] gave a concentration for half-maximal inhibition (IC50) of 0.04 µM.
In the case of `CC(=O)N[C@H]1C[C@H](Oc2cc(F)ccc2Nc2ncnc3sc(C(=O)NCCO)c(C)c23)C1` [Example 41] it was 0.152 µM; in that of `CO[C@H]1CCCC[C@@H]1Oc1cc(F)ccc1Nc1ncnc2sc(C(N)=O)c(C)c12` [Example 42, 4-[4-Fluoro-2-((1S,2S)-2-methoxy-cyclohexyloxy)-phenylamino]-5-methyl-thieno[2,3-d]pyrimidine-6-carboxylic acid amide], 0.14 µM.
In the case of `CO[C@H]1CCCC[C@@H]1Oc1cc(F)ccc1Nc1ncnc2sc(C(=O)NCCCN(C)C)c(C)c12` [Example 43, 4-[4-Fluoro-2-((1S,2S)-2-methoxy-cyclohexyloxy)-phenylamino]-5-methyl-thieno[2,3-d]pyrimidine-6-carboxylic acid (3-dimethylamino-propyl)-amide] it was 0.36 µM.
In the case of `Cc1c(C(N)=O)sc2ncnc(Nc3ccc(F)cc3O[C@H]3CCCC[C@@H]3O)c12` [Example 51, 4-[4-Fluoro-2-((1S,2S)-2-hydroxy-cyclohexyloxy)-phenylamino]-5-methyl-thieno[2,3-d]pyrimidine-6-carboxylic acid amide] it was 0.013 µM.
Turning to `Cc1c(C(N)=O)sc2ncnc(Nc3ccc(F)cc3O[C@@H]3CCCC[C@H]3O)c12` [Example 52, 4-[4-Fluoro-2-((1R,2R)-2-hydroxy-cyclohexyloxy)-phenylamino]-5-methyl-thieno[2,3-d]pyrimidine-6-carboxylic acid amide], inhibition was half-maximal at 0.03 µM (IC50).
With `Cc1c(C(=O)NCCCN(C)C)sc2ncnc(Nc3ccc(F)cc3O[C@@H]3CCCC[C@H]3O)c12` [Example 53, 4-[4-Fluoro-2-((1R,2R)-2-hydroxy-cyclohexyloxy)-phenylamino]-5-methyl-thieno[2,3-d]pyrimidine-6-carboxylic acid (3-dimethylamino-propyl)-amide] the figure was 0.054 µM; with `COCCNC(=O)c1sc2ncnc(Nc3ccc(F)cc3O[C@@H]3CCCC[C@H]3O)c2c1C` [Example 54, 4-[4-Fluoro-2-((1R,2R)-2-hydroxy-cyclohexyloxy)-phenylamino]-5-methyl-thieno[2,3-d]pyrimidine-6-carboxylic acid (2-methoxy-ethyl)-amide], 0.062 µM; with `Cc1c(C(=O)NCCCN2CCCC2)sc2ncnc(Nc3ccc(F)cc3O[C@H]3CCC[C@H](O)C3)c12` [Example 75], 0.018 µM.
